Experimental data as given in US8722725B2, “Caffeoylquinic acid derivatives containing nitrogen, and preparation method, pharmaceutical composition and usage thereof” (Zhejiang Medicine Co., Ltd. Xinchang Pharmaceutical Factory, priority 2007, dated 2014).
Converted amounts (≈) assume the structure as drawn. Read-outs that look alike come from different tables or passages of the source. Each block holds one molecule with its values, some of them ahead of it.

How the values were obtained:
Format in all cases: cell-based
[1] = test system: human hepatoma carcinoma cells (Hep G2) 2.2.15 cell line; assay: Cell toxicity in 2.2.15 cells (cytopathic cells observed for 8 days, Reed-Muench)
Description: (§1) Anti-hepatitis (HBV) DNA virus in vitro of the above partial compounds is tested. human hepatoma carcinoma cells (Hep G2) in the 2.2.15 cell line are transfected by DNA cloning of hepatitis B virus (HBV), the inhibitory effect on cell toxicity and HBV DNA secretion are studied. Half inhibition concentration (IC50) and half toxicity concentration (TC50) of samples are measured, the inhibition ratio to HBV DNA in the 2.2.15 cell culture are obtained respectively.
Virus strains: human hepatoma carcinoma cells (Hep G2) in 2.2.15 cell line are transfected by DNA cloning of hepatitis B virus (HBV).
Sample treatment: the sample is prepared for a suitable concentration by being dissolved in DMSO and preserved at 4° C. before using. When using, the required concentration is prepared by using a 2.2.15 cell culture medium.
Test method: The sample is prepared for a 20 mg/ml mother liquor, and is further prepared for a required concentration by using a 2.2.15 cell culture medium. Then the above solution is diluted to 5 times from 200 μg/ml with the culture medium to form eight kinds of concentrations. The above solution is added to a 96-well cell plate, each of concentration is placed in 3 wells, and the medical solution with the same concentration is changed every 4 days. Cell control group without drug is set to observe cytopathic cell as a target, the cytopathic cell is observed under a microscope for 8 days, wherein full destruction is about 4; 75% of cytopathic cells are about 3; 50% of cytopathic cells are about 2; 25% of cytopathic cells are about 1; no cytopathic cells is about 0. Mean cytopathic extent and inhibition ratio of medical solutions for each concentration are calculated. Half toxicity concentration (TC50) and its maximum of non toxicity concentration (TC0) are respectively calculated by the method of Reed-Muench. According to the method of molecular cloning experimental technology, firstly the HBV DNA is extracted from 2.2.15 cells of medical solution of each concentration group and cell control groups, and then a dot blot hybridization and autoradiography of each sample are measured. After measuring IOD value or OD value of every hybridization dot, the inhibition ratio is calculated.

[2] = test system: respiratory syncytial virus (RSV), Long strain; assay: Inhibitory effect on anti-RSV in vitro (CPE in Hep-2 cells, 72 h, Reed-Muench); settings: human respiratory syncytial virus, read-out: IC50 (half inhibition concentration, RSV)
Description: Anti-RSV in vitro of the above partial compounds is tested. With Hep-2 cell (human laryngocarcinoma cell) as viral host, Hep-2 cytopathic extent caused by inhibiting RSV is measured and observed for 72 h. Half inhibition concentration (IC50) of samples with respect to respiratory syncytial virus (RSV), its maximum of non toxicity concentration (TC0) and half toxicity concentration (TC50) of samples with respect to Hep-2 cell are respectively calculated by methods of Reed-Muench.
Virus strains: RSV, Long strain
Sample treatment: before using, sample is prepared for a suitable concentration by being dissolved in DMSO, and is diluted to 3 times with a culture medium to form eight dilutions.
Positive control drug: ribavirin (RBV)
(§2) Test method: After Hep-2 cell is cultured in 96-well plate for 24 h, it is infected respiratory syncytial virus (RSV) (200TCID50 infective dose) and absorbed for 4 h to get a viral liquid. Then the viral liquid is discarded. The sample is added thereto according to the above eight dilutions, in the meantime cell control wells of positive drugs, normal cell control wells and viral control wells are set. The cytopathic extent (CPE) is observed for 72 h. Half inhibition concentration (IC50) of samples with respect to respiratory syncytial virus (RSV), its maximum of no toxicity concentration (TC0) and half toxicity concentration (TC50) of samples with respect to Hep-2 cells are respectively calculated by method of Reed-Muench.

[3] = test system: Hep-2 cell (human laryngocarcinoma cell); assay: Toxicity of samples with respect to Hep-2 cell (CPE, Reed-Muench); settings: 72 h
Description: as §2, with “Anti-RSV in vitro of the above partial compounds is tested. With Hep-2 cell (human laryngocarcinoma cell) as viral host, Hep-2 cytopathic extent caused by inhibiting RSV is measured and observed for 72 h. Half inhibition concentration (IC50) of samples with respect to respiratory syncytial virus (RSV), its maximum of non toxicity concentration (TC0) and half toxicity concentration (TC50) of samples with respect to Hep-2 cell are respectively calculated by methods of Reed-Muench. Sample treatment: before using, sample is prepared for a suitable concentration by being dissolved in DMSO, and is diluted to 3 times with a culture medium to form eight dilutions. Test” for “Test”

HIV-1 IIIB virus strain = assay: Inhibitory effect on HIV-1 IIIB in MT-4 cells (P24 antigen ELISA of cell culture supernatant); settings: Human immunodeficiency virus 1, IIIB, MT4, 96 h, read-out: IC50 (half inhibition concentration, HIV-1 IIIB)
Description: (§3) Anti-HIV-1 IIIB/H9 in vitro of the above partial compounds is tested. Half inhibition concentration (IC50) of samples and half toxicity concentration (TC50) of samples are respectively measured after culturing MT-4 cells, wherein the cell toxicity is measured by the method of CPE, and the inhibitory effects on HIV-1 IIIB of compounds are measured by method of measuring P24 antigen of cell culture supernatant.
Virus strains: HIV-1 IIIB virus strain
Sample treatment: before using, the sample is prepared for a suitable concentration by being dissolved in DMSO and then is further prepared for a cell culture medium.
Positive control drug: Zidovudine (AZT)
HIV-1 P24 antigen detection kit: Use products of BioMerieux Corporation in Holland.
HIV-1 P24 antigen is measured by the method of ELISA. After counting the MT-4 cells, the cells are infected in the virus dose of 100TCID50 and absorbed for 1.5 h in the incubator of 37° C., 5% CO2 and a saturated humidity. The cells are inoculated in a 96-well plate at the density of 2×10^5 cells/ml. After adding a diluted drug 100 ul/well, the culture of the plate is cultured at the incubator of 37° C., 5% CO2 and a saturated humidity for 4 days (96 h). Cell supernatant is taken out and diluted in the ratio of 1:3000. HIV-1 P24 titer is measured according to the test steps provided by HIV-1 P24 antigen kit. Compared adding drug groups with viral control groups, half inhibition concentration (IC50) of samples and half toxicity concentration (TC50) of samples are respectively calculated

T-lymphocyte MT-4 = assay: Cell toxicity in MT-4 cells by method of CPE (96 h)
Description: as §3
Test method: The toxicity of drug in cell (TC50 and TC0) is measured by method of CPE. 100 μl cell is inoculated in 96-well plate at a density of 2×10^5 cells/ml. In the meantime, the medical solution 100 μl of 8 kinds of concentration of samples or positive drug zidovudine which are respectively diluted to 3 times are respectively added thereto, each of concentration is placed in 3 wells which are set to a cell control group. The above plates is cultured at the incubator of 37° C., 5% CO2 and a saturated humidity. CPE Cells are observed at the fourth day (96 h) after adding drug, the cytopathic situation is recorded and TC50 and TC0 are calculated.

[4] = test system: hepatitis B virus (HBV) DNA; assay: Inhibition of HBV DNA in 2.2.15 cell culture (dot blot hybridization, autoradiography); settings: concentration not given
Description: as §1
Virus strains: human hepatoma carcinoma cells (Hep G2) in 2.2.15 cell line are transfected by DNA cloning of hepatitis B virus (HBV). […]
Test method: The sample is prepared for a 20 mg/ml mother liquor, and is further prepared for a required concentration by using a 2.2.15 cell culture medium. […] Mean cytopathic extent and inhibition ratio of medical solutions for each concentration are calculated. Half toxicity concentration (TC50) and its maximum of non toxicity concentration (TC0) are respectively calculated by the method of Reed-Muench. According to the method of molecular cloning experimental technology, firstly the HBV DNA is extracted from 2.2.15 cells of medical solution of each concentration group and cell control groups, and then a dot blot hybridization and autoradiography of each sample are measured. After measuring IOD value or OD value of every hybridization dot, the inhibition ratio is calculated.

[5] = RSV Long strain in Hep-2 cell, CPE, 72 h

SMILES: O=C(/C=C/c1ccc(O)c(O)c1)O[C@@H]1C[C@](O)(C(=O)NC2CC2)C[C@@H](OC(=O)/C=C/c2ccc(O)c(O)c2)[C@H]1O [1-1]
- Cell toxicity TC0 [1]: 1.6 µg/mL
- Cell toxicity TC50 [1]: 27.59 µg/mL
- IC50 [2, 5]: > 111 µg/mL
- TC0 (maximum of non toxicity concentration) [3]: 37.04 µg/mL
- TC50 (half toxicity concentration) [3]: 111.11 µg/mL (≈ 200 µM)

SMILES: O=C(/C=C/c1ccc(O)c(O)c1)O[C@@H]1C[C@](OC(=O)/C=C/c2ccc(O)c(O)c2)(C(=O)N2CCCC2)C[C@@H](O)[C@H]1O [2-3]
- Cell toxicity TC0 [1]: 0.32 µg/mL
- Cell toxicity TC50 [1]: 3.58 µg/mL
- IC50 [2, 5]: > 12.3 µg/mL
- TC0 (maximum of non toxicity concentration) [3]: 4.12 µg/mL
- TC50 (half toxicity concentration) [3]: 12.35 µg/mL (≈ 21.7 µM)

SMILES: CNC(=O)[C@]1(O)C[C@@H](OC(=O)/C=C/c2ccc(O)c(O)c2)[C@@H](O)[C@H](OC(=O)/C=C/c2ccc(O)c(O)c2)C1 [3-1]
- IC50 (HIV-1 IIIB virus strain): 1.83 µg/mL (≈ 3.46 µM)
- Cell toxicity TC0 [1]: 1.6 µg/mL
- Cell toxicity TC50 [1]: 27.59 µg/mL
- TC50 (half toxicity concentration) (T-lymphocyte MT-4; human): 32.08 µg/mL (≈ 60.6 µM)
- IC50 [2, 5]: 16.2 µg/mL (≈ 30.7 µM)
- TC0 (maximum of non toxicity concentration) [3]: 37.04 µg/mL
- TC50 (half toxicity concentration) [3]: 64.15 µg/mL (≈ 121 µM)

SMILES: CNC(=O)[C@]1(OC(=O)/C=C/c2ccc(O)c(O)c2)C[C@@H](O)[C@@H](O)[C@H](OC(=O)/C=C/c2ccc(O)c(O)c2)C1 [3-3]
- Cell toxicity TC0 [1]: 0.32 µg/mL
- Cell toxicity TC50 [1]: 3.58 µg/mL
- IC50 [2, 5]: > 111 µg/mL
- TC0 (maximum of non toxicity concentration) [3]: 37.04 µg/mL
- TC50 (half toxicity concentration) [3]: 111.11 µg/mL (≈ 210 µM)

SMILES: CNC(=O)[C@]1(O)C[C@@H](O)[C@@H](O)[C@H](OC(=O)/C=C/c2ccc(O)c(O)c2)C1 [3-5]
- Cell toxicity TC0 [1]: 8 µg/mL
- Cell toxicity TC50 [1]: 89.44 µg/mL
- IC50 [2, 5]: 7.13 µg/mL (≈ 19.4 µM)
- TC0 (maximum of non toxicity concentration) [3]: 12.35 µg/mL
- TC50 (half toxicity concentration) [3]: 37.04 µg/mL (≈ 101 µM)

SMILES: CNC(=O)[C@]1(O)C[C@@H](OC(=O)/C=C/c2ccc(O)c(O)c2)[C@@H](OC(=O)/C=C/c2ccc(O)c(O)c2)[C@H](OC(=O)/C=C/c2ccc(O)c(O)c2)C1 [3-7]
- IC50 (HIV-1 IIIB virus strain): 1.02 µg/mL (≈ 1.47 µM)
- Cell toxicity TC0 [1]: >200 µg/mL
- Cell toxicity TC50 [1]: >200 µg/mL
- HBV DNA Inhibition ratio (%) [4]: 41.71%
- TC50 (half toxicity concentration) (T-lymphocyte MT-4; human): 32.08 µg/mL (≈ 46.4 µM)
- IC50 [2, 5]: > 64.2 µg/mL
- TC0 (maximum of non toxicity concentration) [3]: 37.04 µg/mL
- TC50 (half toxicity concentration) [3]: 64.15 µg/mL (≈ 92.8 µM)

SMILES: Nc1ccn([C@@H]2CS[C@H](CO)O2)c(=O)n1 [3TC, lamivudine, reference compound]
- HBV DNA Inhibition ratio (%) [4]: 40.8~49.39%

- IC50 (HIV-1 IIIB virus strain): 0.0042 µg/mL (≈ 0.0157 µM)
SMILES: Cc1cn([C@H]2C[C@H](N=[N+]=[N-])[C@@H](CO)O2)c(=O)[nH]c1=O [AZT, zidovudine, reference compound]
- TC50 (half toxicity concentration) (T-lymphocyte MT-4; MT-4 cells, CPE): 20.00 µg/mL (≈ 74.8 µM)

SMILES: NC(=O)c1ncn([C@@H]2O[C@H](CO)[C@@H](O)[C@H]2O)n1 [RBV, Ribavirin, reference compound]
- IC50 ([2]; HEp-2, 72 h): 1.37 µg/mL (≈ 5.61 µM)
